According to patent US5294611A, “Angiotensin II receptor blocking 2,3,6 substituted quinazolinones” (American Cyanamid Company, priority 1993, dated 1994):

Target: T1, Angiotensin II Receptor (Bos taurus, UniProt P25104)
T1 construct: The brownish tissue forming the adrenal cortex is scraped off and finely minced with scissors before homogenization; tissue local slaughter house (maxwell-Cohen); host or cells: beef adrenal cortex, 100,000 x g microsomal membranes
T1 sequence (P25104 1-359): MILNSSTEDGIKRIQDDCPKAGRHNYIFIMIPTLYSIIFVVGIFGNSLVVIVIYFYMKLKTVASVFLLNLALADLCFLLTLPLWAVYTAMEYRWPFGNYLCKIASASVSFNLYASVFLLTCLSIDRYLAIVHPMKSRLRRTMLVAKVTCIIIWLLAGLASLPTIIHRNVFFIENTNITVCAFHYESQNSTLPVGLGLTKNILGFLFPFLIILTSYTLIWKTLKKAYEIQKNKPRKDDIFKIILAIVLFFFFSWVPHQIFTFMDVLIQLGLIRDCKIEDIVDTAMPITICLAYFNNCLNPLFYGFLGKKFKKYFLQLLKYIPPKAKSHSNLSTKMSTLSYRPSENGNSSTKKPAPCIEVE
Assay: Receptor Binding Assay: displacement of [^125 I](Sar^1,Ile^8)AngII from adrenal cortex microsomal membranes
Parameters: species or system beef (bovine adrenals)
Source text: Beef adrenals are obtained from a local slaughter house (maxwell-Cohen). [^125 I](Sar^1,Ile^8)AngII, S.A. 2200 Ci/mmole, is purchased from Dupont (NEN®, Boston, Mass.). All unlabeled AngII analogs, Dimethylsulfoxide (DMSO), nucleotides, bovine serum albumin (BSA) are purchased from Sigma Chemical Co., St. Louis, Mo. U.S.A.
Approximately sixteen (16) to twenty (20) beef adrenal glands are processed as follows: fresh adrenal glands received on crushed ice are cleaned of fatty tissues and the tough membranes encapsulating the glands are removed and discarded. The brownish tissue forming the adrenal cortex is scraped off and finely minced with scissors before homogenization. Care is taken to avoid contamination with medullary tissue during dissection. The scraped cortices are suspended in twenty volumes of an ice-cold buffer medium consisting of 10 mM Tris.HCl (pH 7.4 at 22° C.) and containing 1.0 mM EDTA and 0.2M sucrose. Unless otherwise indicated, all subsequent operations are done at 4° C. […] The homogenate is centrifuged first at low speed (3,000× g) for 10 min. The resulting pellet is discarded and the supernatant fluid recentrifuged at 10,000× g for 15 minutes to give a P2 pellet. This P2 pellet is discarded and the liquid phase is carefully decanted off in clean centrifuge tubes and recentrifuged at high speed (100,000× g) for 60 min. The translucent final pellet is harvested and combined in a small volume (20-50.0 ml) of 50.0 mM Tris.HCl buffer, pH 7.2. A 100 ul aliquot is withdrawn and the protein content of the preparation is determined by the Lowry's method (Lowry, O. H., Rosebrough, N. F., Parr, A. L. and Randall, R. J., Protein measurement with Folin phenol reagent. J. Biol. Chem., 48, 265-275; 1951). The pelleted membrane is reconstituted in 50.0 mM Tris.HCl buffer containing 0.1 mM of phenylmethylsulfonyl fluoride (PMSF) to give approximately a protein concentration of 2.5 mg per ml of tissue suspension. The membrane preparation is finally aliquoted in 1.0 ml volumes and stored at -70° C. until use in the binding assays.
The binding of [^125 I](Sar^1,Ile^8)AngII to microsomal membranes is initiated by the addition of reconstituted membranes (1:10 vols.) in freshly made 50.0 mM Tris.HCl buffer, pH 7.4 containing 0.25% heat inactivated bovine serum albumin (BSA): 80 ul membrane protein (10 to 20 ug/assay) to wells already containing 100 ul of incubation buffer (as described above) and 20 ul [^125 I](Sar^1,ILE^8)AngII (Specific Activity, 2200 Ci/mmole). Non-specific binding is measured in the presence of 1.0 uM unlabeled (Sar^1,ILE^8)AngII, added in 20 ul volume. […] In competition studies, experimental compounds are diluted in dimethylsulfoxide (DMSO) and added in 20 ul to wells before the introduction of tissue membranes. […] Assays are performed in triplicate. The wells are left undisturbed for 60 min. at room temperature. Following incubation, all wells are harvested at once with a Brandel® Harvester especially designed for a 96 well plate (Brandel® Biomedical Research & Development Labs. Inc., Gaithersburg, Md., U.S.A.). The filter discs are washed with 10×1.0 ml of cold 0.9% NaCl to remove unbound ligand. […] This method is routinely used. The filters are removed from the filter grid and counted in a Parkard® Cobra Gamma Counter for 1 min. (Packard Instrument Co., Downers Grove, Ill., U.S.A.). The binding data are analyzed by the non-linear interactive "LUNDON-1" program (LUNDON SOFTWARE Inc., Cleveland, Ohio U.S.A.).

Compound | IC50
CCCCc1nc2ccc([C@H]3[C@@H]4C(=O)CC[C@@H]4ON3C)cc2c(=O)n1Cc1ccc(-c2ccccc2-c2nnn[nH]2)cc1 (relative stereo) [Example 48] | 57 nM
CCCCc1nc2ccc([C@@H]3[C@H]4C(=O)CCC[C@H]4ON3C)cc2c(=O)n1Cc1ccc(-c2ccccc2-c2nnn[nH]2)cc1 (relative stereo) [Example 49] | 880 nM
CCCCc1nc2ccc([C@H]3[C@@H]4C(=O)OC[C@@H]4ON3C)cc2c(=O)n1Cc1ccc(-c2ccccc2-c2nnn[nH]2)cc1 (relative stereo) [Example 53] | 71 nM
CCCCc1nc2ccc([C@H]3[C@@H]4C(=O)CC[C@@H]4ON3Cc3ccccc3)cc2c(=O)n1Cc1ccc(-c2ccccc2-c2nnn[nH]2)cc1 (relative stereo) [Example 55] | 78 nM
CCCCc1nc2ccc([C@H]3[C@@H]4C(=O)OC[C@@H]4ON3Cc3ccccc3)cc2c(=O)n1Cc1ccc(-c2ccccc2-c2nnn[nH]2)cc1 (relative stereo) [Example 57] | 180 nM
CCCCc1nc2ccc([C@H]3[C@@H]4C5CCC(C5)[C@@H]4ON3C)cc2c(=O)n1Cc1ccc(-c2ccccc2-c2nnn[nH]2)cc1 (stereo partly drawn) [Example 51] | 150 nM
